Laboratory results taken from patent US7868011B2 (General Atomics, priority 2003, dated 2011).

Experiments:
[1] = target: intracellular AdoHcy hydrolase (Rattus norvegicus, UniProt P10760); details: intracellular enzyme; cited from earlier work
[2] = target: SAH hydrolase (Rattus norvegicus, UniProt P10760); details: cited from earlier work
[3] = tested on: lupus-prone MRL-Fas^lpr mice; test: survival of lupus-prone MRL-Fas lpr mice; type: in vivo, mouse; details: 50 mg/kg/day i.p.
Procedure: MRL-Fas^lpr female mice were provided by The Jackson Laboratory (Bar Harbor, Me.). The mice were housed in specific pathogen-free (SPF) conditions with room temperature of 24±2° C., 12 hr light/dark cycle, and provided with sterile food and water ad libitum. Starting at approximately 6 weeks of age, MRL-Fas^lpr mice (n=11-13/group) were dosed i.p. every day with either DZ2002 (50 mg/kg/day) or with vehicle (0.4% DMSO/PBS) for ˜9 months and followed for survival. Mouse survival data were analyzed by the Kaplan-Meir method with comparison by the log-rank test; p<0.05 was considered to be significant.

[4] = tested on: C57BL/6 spleen cells stimulated by mitomycin-treated Balb/c spleen cells; test: Mixed lymphocyte reaction (MLR) proliferation assay; type: cell-based, mouse; details: 3-day culture
Procedure: Balb/c mouse spleen cells were prepared in 10^7 cells/ml suspension, cultured 2 h with 50 μg/ml of mitomycin. Then cells were washed and cultured together with fresh C57/B6 mice splenocytes equally in a final concentration of 1.0×10^6 cells/ml in the presence or absence of various concentrations of DZ2002. After 48 hour incubation, cells were pulsed with 0.5 μCi/well of [^3H]-thymidine and cultured for another 24 hours. The cells were then harvested onto glass fiber filters and the incorporated radioactivity was counted using a Beta Scintillator (MicroBeta Trilux, PerkinElmer Life Sciences).

[5] = tested on: Mouse splenic lymphocytes; test: MTT cytotoxicity assay of the splenic lymphocytes; type: cell-based; details: 0.1-10 μmol/L, two days of culture
Procedure: Cytotoxicity was assessed with MTT assay. Mouse splenic lymphocytes were incubated in a 96-well plate at 9×10^4 cells/180 μl/well in a humidified CO2 incubator at 37° C. for 48 hours in the presence or absence of various concentrations of DZ2002. Fifteen (15) μl of 5 mg/ml of MTT was pulsed 4 h prior to end of the culture […], and then 80 μl solvent (10% SDS, 50% N,N-dimethy formamide, PH7.2) was added. Incubate for 7 h and read OD590 at a microplate reader (Bio-rad Model 550 Japan).

[6] = tested on: TG induced peritoneal macrophages; test: cytokine production from TG induced peritoneal macrophages (ELISA); type: cell-based, BALB/C mice; details: IFN-γ and LPS 24 h, 0.1-10 μmol/L
Procedure: Peritoneal exudate cells were induced in BALB/C mice by an intraperitoneal injection of 0.5 ml of 3% TG. After 4 days, the peritoneal exudates cells were harvested by sterile lavage.
Murine peritoneal exudate cells (6.25×10^5) were cultured in 24-well plates in a volume of 1 ml/well for 2 hours. In adherent cells were washed by ice cold RPMI 1640 and adherent cells were culture in a volume of 2 ml/well in the presence of IFN-γ (2.5 ng/ml) and LPS (1 μg/ml) in the presence or absence of various concentrations of DZ2002. After 24 h, cell-free supernatant was collected and frozen at −20° C. The concentrations of IL-12p40, IL-12p70, IL-10 and TNF-α were determined by ELISA.
Cytokines produced by peritoneal macrophages were assessed following a 24-h incubation with IFN-γ at 25 U/ml and LPS at 1 μg/ml. Resident peritoneal cells produce low levers of cytokines except for some IL-10 with incubated with IFN-γ and LPS (data not shown). As for TG induced peritoneal macrophages, DZ2002 inhibited IL-12P40 and TNF-α release, but have no effect on IL-10 production in the dose of 0.1-10 μmol/L (FIG. 5).

[7] = tested on: primary antibody production in response to SRBC; test: Quantitative hemolysis of sheep red blood cells (QHS) assay; type: in vivo, Balb/c mice; details: 7-day intraperitoneal injection
Procedure: Female Babl/c mice were immunized by intraperitoneal injection with 0.2 ml of 16.7% of SRBC on day 4. Vehicle, Dexamethasone and DZ2002 were administrated on each group (n=6) by intraperitoneal injection on 7 consecutive days of 1-7. On day 8, mice were sacrificed and made a mixed suspension of spleen cells of 2×10^6 cells/ml. 1 ml of cell suspension was incubated with 1 ml of 0.5% SRBC and 1 ml of 1:10 dilution of guinea pig complement for 1 h at 37° C., then centrifuged (3 min, 3000 g) and determined the supernatant hemolysis at 413 nm, according to Simpson et al., J. Immunol. Methods., 21(1-2):159-65. (1978) with some modifications. Each group was triplicated.

SAH hydrolase, sequence (P10760 whole entry): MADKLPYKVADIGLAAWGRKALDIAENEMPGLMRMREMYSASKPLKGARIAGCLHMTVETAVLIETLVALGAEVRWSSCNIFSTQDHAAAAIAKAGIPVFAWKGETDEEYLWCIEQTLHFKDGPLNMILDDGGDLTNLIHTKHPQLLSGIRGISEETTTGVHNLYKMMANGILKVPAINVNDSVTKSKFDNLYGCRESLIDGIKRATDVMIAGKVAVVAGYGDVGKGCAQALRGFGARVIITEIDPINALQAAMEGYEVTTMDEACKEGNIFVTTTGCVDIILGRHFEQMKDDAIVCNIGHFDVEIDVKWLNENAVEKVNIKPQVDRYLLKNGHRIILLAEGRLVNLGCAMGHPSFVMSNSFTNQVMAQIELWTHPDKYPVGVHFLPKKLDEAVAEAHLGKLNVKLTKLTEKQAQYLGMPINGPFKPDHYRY
intracellular AdoHcy hydrolase, sequence (P10760 whole entry): as above

For `Nc1ncnc2c1ncn2C[C@H](O)CO` [(S)-DHPA, (S)-9-(2,3-dihydroxypropyl)adenine], the “type of inhibition of intracellular AdoHcy hydrolase” value [1] is listed as “irreversible inhibitor”, the “type of inhibition of isolated AdoHcy hydrolase” value ([2]; isolated enzyme) is listed as “reversible inhibitor” and the Ki ([2]; read-out: Ki value against SAH hydrolase) is listed as 3.5 µM.

With `COC(=O)C(O)CCn1cnc2c(N)ncnc21` (stereo not drawn) [DZ2002, Methyl 4-(Adenin-9-yl)-2-hydroxybutanoate] the “age at which extension in survival was first observed” value [3] was “approximately 160 days of age”, the “suppression of MLR” value ([4]; 0.1 μmol/L) was 40.2% and the “suppression of MLR” value ([4]; 1 μmol/L) was 36.9%. For the same molecule, the “suppression of MLR” value ([4]; 10 μmol/L) was 42.3%, the “cytotoxicity to spleen cells (MTT, OD)” value [5] was “no cytotoxicity” and the IL-10 production [6] was “no effect”. The “inhibition of QHS” value ([7]; 0.08 mg/kg) was 24.5% and the “inhibition of QHS” value ([7]; 2 mg/kg) was 18.4%.

With `C[C@@H]1C[C@H]2[C@@H]3CCC4=CC(=O)C=C[C@]4(C)[C@@]3(F)[C@@H](O)C[C@]2(C)[C@@]1(O)C(=O)CO` [Dethamethasone, reference compound] the “inhibition of QHS” value ([7]; 5 mg/kg) was 38.1%.
